The values below come from patent publication US20200377510A1, “DERIVATIVES OF PIPERLONGUMINE AND USES THEREOF” (Auransa Inc., priority 2019, published 2020).

The test system of data set [1] is triple negative breast cancer (DU4475) cells. The data set can be described thus: In vitro cell viability assay (CellTiter-Glo, ATP levels). It counts as cell-based. The conditions noted are these: Homo sapiens, DU-4475, 168 h, 7-day incubation, average IC50. As to the method: (§1) The present disclosure provides a method for inhibiting cell viability, as measured by ATP levels. The method for inhibiting cell viability is drawn to contacting various cancer cells with the compounds described herein at various concentrations. The cancer cell lines were maintained in culture conditions at 37° C. in an atmosphere of 5% CO2 in air. The cells growing in an exponential growth phase were harvested and counted for plating. Compounds were incubated in two cancer cell types representing multiple myeloma (MOLP-8) and triple negative breast cancer (DU4475). Cells were plated at an optimized cell numbers per well in 96-well plates and allowed to attach to the plates overnight at approximately 80% confluency.
(§2) After addition of compounds, plates were incubated for 7-day. At the end of incubation period on day 8, media was removed and replaced with a solution of CellTiter-Glo™ reagent (Promega®) according to protocol. Luminescence was read using an EnVision® multi-label plate reader (Perkin-Elmer®), and signal intensity was calculated relative to positive and negative control wells. Cisplatin was included as the positive control. A dose-response calculation was performed in a non-linear regression fit and by using the Hill equation to calculate a concentration-response curve and 50% inhibitory concentration (IC50) values for each compound. […]
A general note: ATP-based viability assays read luminescence as a measure of living cells.

Data set [2] concerns multiple myeloma (MOLP-8) cells. The data set is described as above. To be noted: Homo sapiens, MOLP-8, 168 h, 7-day incubation, average IC50. It counts as cell-based. The protocol:
as §1, §2

A short description of data set [3]: In vivo pharmacokinetic analysis (plasma). To be noted: female, Balb/C, mouse, mice, read-out: Plasma half-life t1/2 (converted). As to the method:
Age 8 to 9 weeks Balb/C female mice were used for this study. The mice were maintained in a special pathogen-free environment and in disposable cages. Animal room was set to maintain temperature and relative humidity at 23° C.±3° C. and 55%±15%, respectively. Housing room was on a 12:12 light/dark cycle. Water was supplied ad libitum to each cage via water bottles. All mice were fed rodent diet with 18% protein. All animals were weighed before commencement of the study.
Compound 1 was stored at 4° C. protected from light. Dosing solutions were used within 2 hours of preparation. Compound 1 was formulated within 2 hours prior to dosing by adding the pre-calculated volume of PEG 400 (40% of total solution volume). Formulated compound 1 was vortexed and sonicated until a clear solution was formed. To this clear formulation, saline (60% of total solution volume) was added and vortexed until a clear solution was formed. The Compound 1 solution was filtered using a sterile syringe filter (0.2 μm coming filter). All Compound 1 solutions were mixed thoroughly prior to pulling up into syringes and prior to dosing. 12 mice were dosed intravenously at 5 mg/kg. 12 mice were dosed intraperitoneally at 10 mg/kg. 12 mice were dosed orally at 10 mg/kg. Animals were sacrificed for blood and organs sampling. Under isoflurane anesthesia, blood was collected via retro-orbital route. Blood samples were then centrifuged for 5 minutes at a minimum of 2,000×g. Plasma supernatant (a minimum of 50 μL or as much as feasible to collect) was collected. Plasma was stored at −80° C.
Bioanalytical analysis of plasma levels of Compound 1 was performed by mass spectrometry. Calibration standards were prepared by spiking the test compound into blank plasma. Calibrator concentrations were 5,000, 2,000, 1,000, 200, 100, 20, 10, 2 and 1 ng/mL. Calibration standard samples were processed along with the test samples.
Twenty μL aliquots of plasma test samples were treated with 100 μL of methanol: acetonitrile (5:95 v:v) containing internal standard (12.5 ng/mL verapamil). The mixtures were vortexed on a shaker for 15 minutes and subsequently centrifuged at 4,000 rpm for 15 minutes. An aliquot of 50 μL of the supernatant was mixed with 100 μL of water with 0.1% formic acid for injection to the LC/MS/MS (liquid chromatography/tandem-mass spectrometry).
The concentration of Compound 1 was determined by a UPLC-TIS-MS-MS method (ultra performance liquid chromatography—turbo ion spray—tandem mass spectrometry). The UPLC comprised a Shimadzu LC-30AD HPLC (high performance liquid chromatography). Chromatographic separation was achieved using a Waters UPLC column (Acquity UPLC BEH C18, 50×2.1 mm, 1.7 μM). Mobile phase A was water with 0.1% formic acid; mobile phase B was acetonitrile with 0.1% formic acid. The gradient program was as follows: 20% B (0-0.2 min), 20-95% B (0.2-1.2 min), 95% B (1.2-1.8 min), 95-20% B (1.81-2.2 min). The flow rate was 0.6 mL/minute. The column was maintained at 50° C.
Mass spectrometric analysis was performed using an AB Sciex API5000 with Turbo Ion Spray interface operating in a positive ionization mode. Quantification was performed using multiple reaction monitoring (MRM) method with the transitions of (m/z) 316.104→(m/z) 219.014 for Compound 1 and (m/z) 455.346→(m/z) 165 for verapamil (internal standard). Pharmacokinetics of Compound 1 ((E)-1-(3-(8-methoxy-2,3-dihydrobenzo[b][1,4]dioxin-6-yl)acryloyl)-5,6-dihydropyridin-2(1H)-one) in the plasma of the mice dosed intravenously (IV; 5 mg/kg), intraperitoneally (IP; 10 mg/kg) and orally (PO; 10 mg/kg) (n=3 per time point) is illustrated in FIG. 1.

The subject of data set [4] is collagen-induced arthritis. The data set is described as follows: Collagen-induced arthritis in female Lewis rats. The data set is classed as in vivo. The conditions noted are these: 3 mg/kg QD PO, vs vehicle control rats.
Protocol: Animals were anesthetized with isoflurane and given intradermal injections of 400 μl (2×200 μl) of Porcine Type II collagen in Freund's incomplete adjuvant spread equally over two sites on the back on study days 0. On day 7, a boost injection was given; intradermal injections of 100 μl of Porcine Type II collagen in Freund's incomplete adjuvant. Collagen was prepared by making a 2 mg/ml solution in 0.01 N Acetic acid. Equal volumes of collagen and Freund's incomplete adjuvant were emulsified by hand mixing with the syringes partially submerged in ice water for 10 minutes, at which point a bead of this material will hold its form when placed in water.
On study day 6, the animals were randomized by body weight into treatment groups and dosing was initiated.
Efficacy evaluation was based on animal body weights, ankle caliper measurements, and final hind paw weights. Terminal serum was analyzed for anti-type II collagen antibody (IgG) concentrations.
The rats were weighed on day 6 for randomization, on day 9, and daily on days 11 through 17.
Caliper measurements of right and left ankle diameters were taken on study days 9 (baseline) and 11 through 17. Ankle caliper measurements were made with a digital micrometer (Digitrix II; Fowler & NSK). Baseline measurements were taken using one ankle with values rounded to one thousandth of an inch. […]

SMILES strings stand for the structures. Where two headings read alike, the source gives them in different places.

Take `C/C(=C/c1ncccn1)C(=O)N1CCC=CC1=O` [Compound 49]: the IC50 in data set [1] was 5.06 µM; in data set [2], 6.11 µM.
In the case of `COc1cc(/C=C/C(=O)N2CCC=CC2=O)cc2c1OCCO2` [Compound 1, (E)-1-(3-(8-methoxy-2,3-dihydrobenzo[b][1,4]dioxin-6-yl)acryloyl)-5,6-dihydropyridin-2(1H)-one], the half-life in data set [3] (plasma, IP, 10 mg/kg) was 1.14 h; in data set [3] (plasma, IV, 5 mg/kg), 1.66 h; in data set [3] (plasma, PO, 10 mg/kg) it was 2.16 h.
`COc1cc(/C=C/C(=O)N2CCC=CC2=O)cc(OC)c1OC` [piperlongumine, 1-[(E)-3-(3,4,5-trimethoxyphenyl)prop-2-enoyl]-2,3-dihydropyridin-6-one]: the half-life was 1.07 h in data set [3] (in vivo, IP, 10 mg/kg); 1.26 h in data set [3] (in vivo, IV, 5 mg/kg); 1.31 h in data set [3] (in vivo, PO, 10 mg/kg).
In the case of `CCS(=O)(=O)N1CC(CC#N)(n2cc(-c3ncnc4[nH]ccc34)cn2)C1` [baricitinib], in data set [4], the “reduction of ankle diameter measurements AUC” value is on record as 72% and the “reduction of final hind-paw weights” value came out at 71%.

One may read the IC50 as the concentration needed to halve the response being measured. Low readings indicate higher potency, high ones lower potency.
